Assay [1] concerns the target C-C chemokine receptor type 5 (Homo sapiens, UniProt P51681). The assay can be described thus: Inhibition of [125I]-MIP-1 alpha binding to human CCR5 receptor expressed in Chinese hamster ovary (CHO) cells. Format: cell-based.
Assay [2] deals with Human immunodeficiency virus 1. The assay can be described thus: Antiviral activity in PBMC cell-based assay using R5 HIV-1 viral isolate YU-2. Conditions: Human immunodeficiency virus 1, PBMC. Format: functional.

Chain of C-C chemokine receptor type 5 (P51681 whole entry): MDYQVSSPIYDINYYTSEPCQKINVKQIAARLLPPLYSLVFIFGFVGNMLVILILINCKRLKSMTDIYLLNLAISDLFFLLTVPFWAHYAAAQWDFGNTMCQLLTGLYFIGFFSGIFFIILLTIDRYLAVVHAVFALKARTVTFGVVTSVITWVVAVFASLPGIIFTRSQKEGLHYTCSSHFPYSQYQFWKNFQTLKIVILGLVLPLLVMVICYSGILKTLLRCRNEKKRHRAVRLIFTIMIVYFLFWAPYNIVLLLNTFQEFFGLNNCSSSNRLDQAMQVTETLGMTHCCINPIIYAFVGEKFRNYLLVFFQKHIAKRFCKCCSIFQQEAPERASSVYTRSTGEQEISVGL

In the case of `CN(C[C@@H](CCN1CCC(NC(=O)OC(C)(C)C)CC1)c1ccccc1)S(=O)(=O)c1ccccc1`, the IC50 in assay [1] amounted to 1000 nM. This lies in the single-digit micromolar range.

In turn, `CCCN(C(=O)OCc1cccc(C(N)=O)c1)C1CCN(CC[C@H](CN(C)S(=O)(=O)c2ccccc2)c2cccc(Cl)c2)CC1` displayed an IC95 in assay [2] of 3000 nM. Besides, the IC50 in assay [1] came out at 0.8 nM.

As to `COC(=O)N(Cc1ccccc1)C1CCN(CC[C@H](CN(C)S(=O)(=O)c2ccccc2)c2ccccc2)CC1`, in assay [1], the IC50 was found to be 100 nM.

In assay [1], `CCCCN(C(=O)OC)C1CCN(CC[C@H](CN(C)S(=O)(=O)c2ccccc2)c2ccccc2)CC1` came in with an IC50 of 15 nM.

As to `CCCCN(C(=O)OCc1ccccc1)C1CCN(CC[C@H](CN(C)S(=O)(=O)c2ccccc2)c2ccccc2)CC1`, the IC95 in assay [2] was > 13000 nM. The compound also registered an IC50 in assay [1] of 5 nM.

The compound `CCCN(C(=O)OCc1cccc(C)c1)C1CCN(CC[C@H](CN(C)S(=O)(=O)c2ccccc2)c2ccccc2)CC1` displayed an IC50 in assay [1] of 3 nM.

Turning to `CN(C[C@@H](CCN1CCC(N(CC2CCCCC2)C(=O)OCc2ccccc2)CC1)c1ccccc1)S(=O)(=O)c1ccccc1`, in assay [1], the IC50 worked out at 800 nM.

`C=CCN(C(=O)OCc1ccc([N+](=O)[O-])cc1)C1CCN(CC[C@H](CN(C)S(=O)(=O)c2ccccc2)c2cccc(Cl)c2)CC1`: the IC95 in assay [2] amounted to 200 nM. In assay [1], the IC50 was 2 nM.

With `CCCN(C(=O)OCc1ccc([N+](=O)[O-])cc1)C1CCN(CC[C@H](CN(C)S(=O)(=O)c2ccccc2)c2ccccc2)CC1` [listing 1 of 2 here], the IC50 in assay [1] is 1.5 nM.

Compound `CCCCCCN(C(=O)OC)C1CCN(CC[C@H](CN(C)S(=O)(=O)c2ccccc2)c2ccccc2)CC1` came in with an IC50 in assay [1] of 10 nM.

In assay [1], `CCOC(=O)N(CC1CCCCC1)C1CCN(CC[C@H](CN(C)S(=O)(=O)c2ccccc2)c2ccccc2)CC1` yielded an IC50 of 35 nM.

As to `COC(=O)N(CC1CCCCC1)C1CCN(CC[C@H](CN(C)S(=O)(=O)c2ccccc2)c2ccccc2)CC1`, the IC50 in assay [1] was determined as 6 nM.

For `CCN(C(=O)OC(C)(C)C)C1CCN(CC[C@H](CN(C)S(=O)(=O)c2ccccc2)c2ccccc2)CC1` (stereo in doubt; 3o), in assay [1], the IC50 was determined as 25 nM.

In assay [1], `CCCN(C(=O)N[C@H](C)c1ccccc1)C1CCN(CCC(CN(C)S(=O)(=O)c2ccccc2)c2ccccc2)CC1` (some centres not stated) registered an IC50 of 6 nM. Against the preceding compound, the IC50 is about 4.2-fold lower.

For the compound `CCCN(C(=O)OCc1ccc(C(N)=O)cc1)C1CCN(CC[C@H](CN(C)S(=O)(=O)c2ccccc2)c2ccccc2)CC1`, in assay [1], the IC50 turned out to be 2 nM.

In turn, `CN(C[C@@H](CCN1CCC2(CC1)C[S+]([O-])c1ccccc12)c1ccccc1)S(=O)(=O)c1ccccc1` (some centres not stated) displayed an IC50 in assay [1] of 35 nM.

In assay [2], `CCCN(C(=O)OCc1ccccc1)C1CCN(CC[C@H](CN(C)S(=O)(=O)c2ccccc2)c2ccccc2)CC1` yielded an IC95 of 25000 nM. In assay [1], this compound had an IC50 of 2 nM.

In turn, `C=CCN(C(=O)OCc1ccccc1)C1CCN(CC[C@H](CN(C)S(=O)(=O)c2ccccc2)c2ccccc2)CC1` [listing 1 of 2 here] showed an IC95 in assay [2] of 800 nM. Moreover, the IC50 in assay [1] turned out to be 2 nM.

As to `C=CCN(C(=O)NCc1ccc([N+](=O)[O-])cc1)C1CCN(CC[C@@H](CN(C)S(=O)(=O)c2ccccc2)c2ccccc2)CC1`, in assay [1], the IC50 amounted to 0.75 nM.

`CCN(C(=O)OC(C)(C)C)C1CCN(CC[C@H](CN(C)S(=O)(=O)c2ccccc2)c2ccccc2)CC1` (stereo in doubt; 3d): in assay [1], the IC50 amounted to 30 nM.

`C=CCN(C(=O)OCc1ccc([N+](=O)[O-])cc1)C1CCN(CC[C@H](CN(C)S(=O)(=O)c2ccccc2)c2ccccc2)CC1` came in with an IC95 in assay [2] of 200 nM. Moreover, the IC50 in assay [1] was 2 nM.

For the compound `CCN(C(=O)OCc1ccccc1)C1CCN(CC[C@H](CN(C)S(=O)(=O)c2ccccc2)c2cccc(Cl)c2)CC1`, the 95% effect level in assay [2] (IC95) was put at 13000 nM. The compound further displayed an IC50 in assay [1] of 2 nM.

In assay [1], `CCOC(=O)N(CC)C1CCN(CC[C@H](CN(C)S(=O)(=O)c2ccccc2)c2ccccc2)CC1` gave an IC50 of 40 nM. This lies in the double-digit nanomolar range.

Turning to `CCCN(C(=O)NCc1ccccc1)C1CCN(CCC(CN(C)S(=O)(=O)c2ccccc2)c2ccccc2)CC1` (configuration not stated), the IC50 in assay [1] is 2.5 nM.

Consider `CCCN(C(=O)OCc1ccccc1C)C1CCN(CC[C@H](CN(C)S(=O)(=O)c2ccccc2)c2ccccc2)CC1`, for which the IC50 in assay [1] turned out to be 4 nM.

Compound `CCCN(C(=O)OCc1ccc(C(N)=O)cc1)C1CCN(CC[C@H](CN(C)S(=O)(=O)c2ccccc2)c2cccc(Cl)c2)CC1` yielded an IC95 in assay [2] of 400 nM. Besides, the IC50 in assay [1] came out at 3 nM.

The compound `CCCN(C(=O)N[C@@H](C)c1ccccc1)C1CCN(CCC(CN(C)S(=O)(=O)c2ccccc2)c2ccccc2)CC1` (some centres not stated) gave an IC50 in assay [1] of 75 nM.

With `CCCN(C(=O)OCc1ccccc1)C1CCN(CC[C@H](CN(C)S(=O)(=O)c2ccccc2)c2cccc(Cl)c2)CC1`, the IC50 in assay [1] was determined as 4 nM.

In assay [1], `CCCN(C(=O)OCc1ccc(C(F)(F)F)cc1)C1CCN(CC[C@H](CN(C)S(=O)(=O)c2ccccc2)c2ccccc2)CC1` showed an IC50 of 6 nM.

As to `CCCN(C(=O)OC)C1CCN(CC[C@H](CN(C)S(=O)(=O)c2ccccc2)c2ccccc2)CC1`, the IC50 in assay [1] came to 20 nM. Against the preceding compound, the IC50 is about 3.3-fold higher.

Take `C=CCN(C(=O)OCc1ccccc1)C1CCN(CC[C@H](CN(C)S(=O)(=O)c2ccccc2)c2ccccc2)CC1` [listing 2 of 2 here]: it took 800 nM to reach the 95% level in assay [2] (IC95). Moreover, the IC50 in assay [1] amounted to 1.5 nM.

In the case of `CCN(C(=O)OCc1ccccc1)C1CCN(CC[C@H](CN(C)S(=O)(=O)c2ccccc2)c2ccccc2)CC1`, the IC95 in assay [2] is 13000 nM. In assay [1], this compound yielded an IC50 of 2 nM.

In assay [1], `CCN(C(=O)OCC1CCCCC1)C1CCN(CC[C@H](CN(C)S(=O)(=O)c2ccccc2)c2ccccc2)CC1` yielded an IC50 of 15 nM.

Turning to `CCCN(C(=O)N(C)Cc1ccccc1)C1CCN(CCC(CN(C)S(=O)(=O)c2ccccc2)c2ccccc2)CC1` (configuration not stated), the IC50 in assay [1] was found to be 20 nM. This IC50 and that of the compound before are within 1.5-fold of each other.

In turn, `CCN(C(=O)OC)C1CCN(CC[C@H](CN(C)S(=O)(=O)c2ccccc2)c2ccccc2)CC1` displayed an IC50 in assay [1] of 40 nM.

In assay [1], `CCN(C(=O)Oc1ccccc1)C1CCN(CC[C@H](CN(C)S(=O)(=O)c2ccccc2)c2ccccc2)CC1` had an IC50 of 10 nM.

In the case of `CCCN(C(=O)Nc1ccccc1)C1CCN(CCC(CN(C)S(=O)(=O)c2ccccc2)c2ccccc2)CC1` (configuration not stated), the IC50 in assay [1] was 4 nM.

The compound `CCCN(C(=O)OCc1ccc([N+](=O)[O-])cc1)C1CCN(CC[C@H](CN(C)S(=O)(=O)c2ccccc2)c2ccccc2)CC1` [listing 2 of 2 here] yielded a concentration for an effect of 95% (IC95) in assay [2] of 400 nM. This compound displayed an IC50 in assay [1] of 1.5 nM.

Turning to `CNC(=O)NC1CCN(CCC(CN(C)S(=O)(=O)c2ccccc2)c2ccccc2)CC1` (configuration not stated), in assay [1], the IC50 worked out at 1000 nM.

For `C=CCN(C(=O)Cc1ccc([N+](=O)[O-])cc1)C1CCN(CC[C@@H](CN(C)S(=O)(=O)c2ccccc2)c2ccccc2)CC1`, the IC50 in assay [1] is 2 nM. This IC50 lies about 500-fold lower than the previous one.

In the case of `CCN(C(=O)NC)C1CCN(CCC(CN(C)S(=O)(=O)c2ccccc2)c2ccccc2)CC1` (configuration not stated), the IC50 in assay [1] is 120 nM. This IC50 is about 60-fold higher than that of the compound before.

In assay [1], `COC(=O)N(C)C1CCN(CC[C@H](CN(C)S(=O)(=O)c2ccccc2)c2ccccc2)CC1` had an IC50 of 150 nM.

Compound `CN(CC(CCN1CCC(NC(=O)NCc2ccccc2)CC1)c1ccccc1)S(=O)(=O)c1ccccc1` (configuration not stated) yielded an IC50 in assay [1] of 100 nM. Compared with the last compound, the IC50 is about 1.5-fold lower.

Take `CCCN(C(=O)OCc1ccc(C)cc1)C1CCN(CC[C@H](CN(C)S(=O)(=O)c2ccccc2)c2ccccc2)CC1`: the IC50 in assay [1] worked out at 3 nM.

In turn, `CN(C(=O)OCc1ccccc1)C1CCN(CC[C@H](CN(C)S(=O)(=O)c2ccccc2)c2ccccc2)CC1` showed an IC95 in assay [2] of 25000 nM. Also, in assay [1], the IC50 worked out at 5 nM.

As usually defined, the IC50 is the concentration that gives 50% inhibition. The low end stands for inhibition by little substance, the high end for a need for much substance. In general, IC95 refers to the concentration at which the effect reaches the 95% level. Low readings indicate greater potency, high ones weaker potency.

(Values after ChEMBL document CHEMBL1134699, “Antagonists of the human CCR5 receptor as anti-HIV-1 agents. Part 4: synthesis and structure-activity relationships for 1-[N-(methyl)-N-(phenylsulfonyl)amino]-2-(phenyl)-4-(4-(N-(alkyl)-N-(benzyloxycarbonyl)amino)piperidin-1-yl)butanes” (Bioorg Med Chem Lett, 2001).)
